Laboratory results from ChEMBL document CHEMBL1201862, “PubChem BioAssay data set” (2004).
Calls of active or inactive are those of the source.

Assays:
Type in all cases: functional
[1] = target: T1, Protein RecA (Mycobacterium tuberculosis, UniProt P9WHJ3); assay: Fluorescence Cell-Free Homogeneous Dose Retest to Identify Inhibitors of RecA-Intein Splicing Activity. [Related pubchem assays (depositor defined):AID2097, AID2223, AID489010, AID492950]
T1 sequence (P9WHJ3 whole entry): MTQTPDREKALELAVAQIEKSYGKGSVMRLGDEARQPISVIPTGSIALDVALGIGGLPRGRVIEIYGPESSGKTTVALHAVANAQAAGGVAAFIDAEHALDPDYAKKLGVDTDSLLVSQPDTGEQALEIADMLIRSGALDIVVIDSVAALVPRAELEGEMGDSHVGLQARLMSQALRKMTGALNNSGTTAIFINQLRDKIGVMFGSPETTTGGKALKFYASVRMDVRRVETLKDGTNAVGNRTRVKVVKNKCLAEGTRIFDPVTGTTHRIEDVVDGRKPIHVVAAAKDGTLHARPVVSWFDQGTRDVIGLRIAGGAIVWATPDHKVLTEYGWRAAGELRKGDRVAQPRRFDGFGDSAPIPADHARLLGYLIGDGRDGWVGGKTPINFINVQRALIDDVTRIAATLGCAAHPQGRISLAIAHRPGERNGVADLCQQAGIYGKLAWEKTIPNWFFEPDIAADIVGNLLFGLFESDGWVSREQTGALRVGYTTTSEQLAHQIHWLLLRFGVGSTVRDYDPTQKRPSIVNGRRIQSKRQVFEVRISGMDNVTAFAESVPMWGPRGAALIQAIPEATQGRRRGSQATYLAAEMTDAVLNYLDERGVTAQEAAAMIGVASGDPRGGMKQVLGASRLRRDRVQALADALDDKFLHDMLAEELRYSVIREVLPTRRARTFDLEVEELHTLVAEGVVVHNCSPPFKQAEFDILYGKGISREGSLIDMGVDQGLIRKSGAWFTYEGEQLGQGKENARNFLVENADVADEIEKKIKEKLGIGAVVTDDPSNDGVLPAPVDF

[2] = target: T2, Serine/threonine-protein kinase Chk1 (Homo sapiens, UniProt O14757);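 further: measured as one member of a kinome-wide kinase profiling panel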
T2 sequence (O14757 whole entry): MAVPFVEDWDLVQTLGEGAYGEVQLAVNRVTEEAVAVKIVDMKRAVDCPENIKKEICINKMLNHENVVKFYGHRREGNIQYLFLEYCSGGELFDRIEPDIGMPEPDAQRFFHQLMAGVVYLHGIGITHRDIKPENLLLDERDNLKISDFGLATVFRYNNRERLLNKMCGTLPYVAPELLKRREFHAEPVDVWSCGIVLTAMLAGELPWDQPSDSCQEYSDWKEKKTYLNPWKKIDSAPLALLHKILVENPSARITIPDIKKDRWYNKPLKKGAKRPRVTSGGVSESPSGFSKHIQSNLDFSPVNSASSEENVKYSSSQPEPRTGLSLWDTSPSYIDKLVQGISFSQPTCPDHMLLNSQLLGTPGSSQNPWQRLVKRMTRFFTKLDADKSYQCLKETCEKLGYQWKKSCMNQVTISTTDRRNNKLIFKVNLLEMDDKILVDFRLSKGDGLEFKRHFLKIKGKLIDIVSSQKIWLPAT

[3] = target: Death-associated protein kinase 3 (Homo sapiens, UniProt O43293);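 further: measured as one member of a kinome-wide profiling panel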
Chain of Death-associated protein kinase 3 (O43293 whole entry): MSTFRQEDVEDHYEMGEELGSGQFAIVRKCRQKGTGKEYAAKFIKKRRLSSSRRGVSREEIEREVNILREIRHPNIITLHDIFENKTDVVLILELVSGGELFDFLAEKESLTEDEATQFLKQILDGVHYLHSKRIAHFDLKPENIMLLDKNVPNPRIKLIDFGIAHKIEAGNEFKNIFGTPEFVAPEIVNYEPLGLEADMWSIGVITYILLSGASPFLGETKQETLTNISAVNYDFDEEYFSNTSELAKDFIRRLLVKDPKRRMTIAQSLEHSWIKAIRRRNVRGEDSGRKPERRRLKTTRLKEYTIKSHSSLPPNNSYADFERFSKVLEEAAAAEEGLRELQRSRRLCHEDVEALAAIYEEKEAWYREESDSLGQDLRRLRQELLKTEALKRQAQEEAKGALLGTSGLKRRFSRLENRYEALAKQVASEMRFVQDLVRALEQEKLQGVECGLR

[4] = target: RAC-gamma serine/threonine-protein kinase (Homo sapiens, UniProt Q9Y243)
Chain of RAC-gamma serine/threonine-protein kinase (Q9Y243 whole entry, canonical isoform): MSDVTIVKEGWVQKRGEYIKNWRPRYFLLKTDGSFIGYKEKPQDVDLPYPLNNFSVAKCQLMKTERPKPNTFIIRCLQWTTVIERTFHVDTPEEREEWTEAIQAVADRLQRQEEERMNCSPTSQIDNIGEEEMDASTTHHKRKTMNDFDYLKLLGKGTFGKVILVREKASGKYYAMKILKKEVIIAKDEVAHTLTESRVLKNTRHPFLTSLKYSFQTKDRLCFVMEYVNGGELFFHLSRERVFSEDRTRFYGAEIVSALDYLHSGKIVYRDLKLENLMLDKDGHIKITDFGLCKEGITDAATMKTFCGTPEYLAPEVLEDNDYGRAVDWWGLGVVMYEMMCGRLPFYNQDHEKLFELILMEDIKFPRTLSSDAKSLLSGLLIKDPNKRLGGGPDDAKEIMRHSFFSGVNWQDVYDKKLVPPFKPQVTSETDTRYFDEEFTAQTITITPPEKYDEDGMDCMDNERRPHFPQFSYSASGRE

[5] = target: Casein kinase I isoform alpha (Homo sapiens, UniProt P48729)
Chain of Casein kinase I isoform alpha (P48729 whole entry, canonical isoform): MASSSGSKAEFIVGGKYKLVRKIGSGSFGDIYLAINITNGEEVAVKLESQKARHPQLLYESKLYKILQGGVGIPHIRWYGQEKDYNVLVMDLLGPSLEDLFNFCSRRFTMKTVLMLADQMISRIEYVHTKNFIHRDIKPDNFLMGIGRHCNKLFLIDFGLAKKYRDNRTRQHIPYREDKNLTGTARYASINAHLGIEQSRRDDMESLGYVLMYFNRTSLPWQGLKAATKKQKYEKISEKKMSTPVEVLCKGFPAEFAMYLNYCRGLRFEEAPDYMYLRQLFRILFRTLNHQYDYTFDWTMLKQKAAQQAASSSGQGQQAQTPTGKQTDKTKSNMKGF

[6] = target: Serine/threonine-protein kinase PLK3 (Homo sapiens, UniProt Q9H4B4)
Chain of Serine/threonine-protein kinase PLK3 (Q9H4B4 whole entry): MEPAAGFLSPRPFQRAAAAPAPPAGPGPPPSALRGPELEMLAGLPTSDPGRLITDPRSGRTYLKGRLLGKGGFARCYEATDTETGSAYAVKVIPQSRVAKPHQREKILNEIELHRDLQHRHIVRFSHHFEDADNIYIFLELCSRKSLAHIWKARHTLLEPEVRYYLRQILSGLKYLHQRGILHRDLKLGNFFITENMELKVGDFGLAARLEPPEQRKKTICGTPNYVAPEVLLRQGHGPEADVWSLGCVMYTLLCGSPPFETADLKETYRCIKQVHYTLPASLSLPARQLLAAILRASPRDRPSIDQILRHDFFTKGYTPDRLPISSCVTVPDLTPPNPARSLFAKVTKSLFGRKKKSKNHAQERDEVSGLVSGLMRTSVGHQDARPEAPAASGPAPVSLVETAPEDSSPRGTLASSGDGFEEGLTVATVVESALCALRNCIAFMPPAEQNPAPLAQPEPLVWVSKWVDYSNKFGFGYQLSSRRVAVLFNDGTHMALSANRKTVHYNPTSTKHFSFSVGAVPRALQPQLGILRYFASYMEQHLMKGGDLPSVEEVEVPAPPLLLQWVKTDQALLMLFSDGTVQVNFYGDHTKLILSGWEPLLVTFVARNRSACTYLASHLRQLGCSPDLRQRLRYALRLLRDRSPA

[7] = target: Vascular endothelial growth factor receptor 2 (Homo sapiens, UniProt P35968)
Chain of Vascular endothelial growth factor receptor 2 (P35968 whole entry): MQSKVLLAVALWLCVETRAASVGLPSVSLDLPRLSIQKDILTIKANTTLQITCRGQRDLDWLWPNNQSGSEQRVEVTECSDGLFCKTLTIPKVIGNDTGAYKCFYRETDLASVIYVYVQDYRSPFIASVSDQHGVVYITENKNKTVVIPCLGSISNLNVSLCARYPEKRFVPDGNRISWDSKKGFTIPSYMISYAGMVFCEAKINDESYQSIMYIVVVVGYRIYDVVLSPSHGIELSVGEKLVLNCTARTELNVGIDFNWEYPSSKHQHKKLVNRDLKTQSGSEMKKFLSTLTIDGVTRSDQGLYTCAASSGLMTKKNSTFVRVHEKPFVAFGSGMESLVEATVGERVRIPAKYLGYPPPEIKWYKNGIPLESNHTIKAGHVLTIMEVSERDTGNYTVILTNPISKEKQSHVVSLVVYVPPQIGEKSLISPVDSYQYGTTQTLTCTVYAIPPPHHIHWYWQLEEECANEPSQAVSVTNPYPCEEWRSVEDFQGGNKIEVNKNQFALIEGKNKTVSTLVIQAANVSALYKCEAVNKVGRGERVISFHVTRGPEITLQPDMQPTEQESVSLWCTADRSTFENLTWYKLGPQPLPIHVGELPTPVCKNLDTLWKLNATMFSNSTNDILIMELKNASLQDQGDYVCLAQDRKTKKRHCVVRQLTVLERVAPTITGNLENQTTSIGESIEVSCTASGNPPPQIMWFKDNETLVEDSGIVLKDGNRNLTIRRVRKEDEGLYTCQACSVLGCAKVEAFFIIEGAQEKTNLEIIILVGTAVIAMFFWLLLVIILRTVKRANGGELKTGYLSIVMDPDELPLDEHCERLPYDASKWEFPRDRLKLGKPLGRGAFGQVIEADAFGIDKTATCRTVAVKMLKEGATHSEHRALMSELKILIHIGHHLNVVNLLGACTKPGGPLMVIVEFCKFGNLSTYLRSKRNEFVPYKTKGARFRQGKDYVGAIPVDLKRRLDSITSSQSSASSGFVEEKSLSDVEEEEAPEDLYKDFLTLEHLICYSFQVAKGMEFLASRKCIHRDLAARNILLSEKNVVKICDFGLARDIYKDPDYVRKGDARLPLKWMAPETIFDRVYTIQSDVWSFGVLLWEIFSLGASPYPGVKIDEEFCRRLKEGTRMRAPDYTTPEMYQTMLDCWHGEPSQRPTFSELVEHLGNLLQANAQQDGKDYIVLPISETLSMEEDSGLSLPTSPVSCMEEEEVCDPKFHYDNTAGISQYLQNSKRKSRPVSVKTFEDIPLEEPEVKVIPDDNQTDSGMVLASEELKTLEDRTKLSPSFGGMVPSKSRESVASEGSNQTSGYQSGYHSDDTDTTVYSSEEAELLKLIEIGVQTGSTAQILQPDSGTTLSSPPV

[8] = target: Serine/threonine-protein kinase pim-3 (Homo sapiens, UniProt Q86V86);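 further: value obtained as one member of a broad kinase panel profiling effort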
[9] = target: Dual specificity mitogen-activated protein kinase kinase 1 (Homo sapiens, UniProt Q02750); assay: Navigating the Kinome. Panel member name: MAP2K1
Chain of Dual specificity mitogen-activated protein kinase kinase 1 (Q02750 whole entry): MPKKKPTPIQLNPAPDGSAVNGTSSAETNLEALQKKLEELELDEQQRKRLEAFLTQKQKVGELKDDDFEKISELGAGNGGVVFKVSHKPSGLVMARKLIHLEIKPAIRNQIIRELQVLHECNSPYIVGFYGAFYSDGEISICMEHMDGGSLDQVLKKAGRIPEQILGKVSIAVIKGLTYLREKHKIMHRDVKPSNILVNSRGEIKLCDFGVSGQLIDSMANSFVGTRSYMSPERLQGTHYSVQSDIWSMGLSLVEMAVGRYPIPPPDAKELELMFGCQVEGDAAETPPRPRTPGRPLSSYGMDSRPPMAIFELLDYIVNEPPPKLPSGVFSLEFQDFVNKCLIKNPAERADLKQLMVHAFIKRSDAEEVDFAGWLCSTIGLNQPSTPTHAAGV

[10] = target: Dual specificity protein kinase CLK4 (Homo sapiens, UniProt Q9HAZ1)
Chain of Dual specificity protein kinase CLK4 (Q9HAZ1 whole entry): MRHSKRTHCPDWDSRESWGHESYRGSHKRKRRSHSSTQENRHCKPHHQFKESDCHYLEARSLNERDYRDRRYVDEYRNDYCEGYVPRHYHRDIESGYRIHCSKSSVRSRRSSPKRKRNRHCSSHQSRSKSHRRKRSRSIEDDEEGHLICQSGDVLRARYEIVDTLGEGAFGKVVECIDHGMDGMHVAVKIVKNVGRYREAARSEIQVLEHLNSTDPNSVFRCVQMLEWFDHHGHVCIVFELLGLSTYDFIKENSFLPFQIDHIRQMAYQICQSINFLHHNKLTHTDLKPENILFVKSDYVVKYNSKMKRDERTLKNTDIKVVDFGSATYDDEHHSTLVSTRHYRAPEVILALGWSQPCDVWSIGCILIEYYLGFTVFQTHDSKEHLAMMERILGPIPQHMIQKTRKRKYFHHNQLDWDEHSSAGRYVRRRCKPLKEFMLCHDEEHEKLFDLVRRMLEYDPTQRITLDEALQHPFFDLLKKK

[11] = target: Dual specificity tyrosine-phosphorylation-regulated kinase 1A (Homo sapiens, UniProt Q13627);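 further: measured against DYRK1A as one member of a broad kinome profiling panel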
[12] = target: T3, Serine/threonine-protein kinase PLK4 (Homo sapiens, UniProt O00444);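 further: PLK4 measured as one member of a kinome-wide kinase profiling panel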
T3 sequence (O00444 whole entry): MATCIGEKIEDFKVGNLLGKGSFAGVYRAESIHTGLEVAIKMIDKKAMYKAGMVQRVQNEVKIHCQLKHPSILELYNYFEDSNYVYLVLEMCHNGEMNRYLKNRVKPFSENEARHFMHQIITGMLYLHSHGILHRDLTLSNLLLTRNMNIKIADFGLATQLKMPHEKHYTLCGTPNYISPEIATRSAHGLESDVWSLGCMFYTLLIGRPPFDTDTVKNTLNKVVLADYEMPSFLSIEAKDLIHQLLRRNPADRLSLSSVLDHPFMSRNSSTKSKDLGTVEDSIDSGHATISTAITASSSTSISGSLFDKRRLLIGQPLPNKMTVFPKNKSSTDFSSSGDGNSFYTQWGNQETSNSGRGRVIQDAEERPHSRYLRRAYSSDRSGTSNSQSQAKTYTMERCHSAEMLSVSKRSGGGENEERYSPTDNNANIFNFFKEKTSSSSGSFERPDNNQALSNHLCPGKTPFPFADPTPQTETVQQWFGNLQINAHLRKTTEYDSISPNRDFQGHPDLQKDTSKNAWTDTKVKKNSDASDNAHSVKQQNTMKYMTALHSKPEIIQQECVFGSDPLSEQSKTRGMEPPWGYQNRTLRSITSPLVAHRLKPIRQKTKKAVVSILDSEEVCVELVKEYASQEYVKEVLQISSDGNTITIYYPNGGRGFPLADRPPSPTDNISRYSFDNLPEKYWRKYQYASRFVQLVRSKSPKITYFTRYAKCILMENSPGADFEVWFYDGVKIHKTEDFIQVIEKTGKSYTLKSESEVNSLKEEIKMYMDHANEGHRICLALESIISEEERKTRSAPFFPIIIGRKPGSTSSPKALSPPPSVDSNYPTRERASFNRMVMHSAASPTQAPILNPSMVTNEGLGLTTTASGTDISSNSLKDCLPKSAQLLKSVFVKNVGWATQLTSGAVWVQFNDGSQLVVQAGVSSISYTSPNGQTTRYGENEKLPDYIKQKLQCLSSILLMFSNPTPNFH

SMILES | EC50 [1] | Ki [2] | Ki [3] | Ki [4] | Ki [5] | Ki [6] | Ki [7] | Ki [8] | Ki [9] | Ki [10] | Ki [11] | Ki [12]
COC(=O)CCS(=O)(=O)c1nc(-c2ccccc2)cc(C(F)(F)F)n1 | 4.56 µM (active) | – | – | – | – | – | – | – | – | – | – | –
O=C(O)c1ccc(NC2=C(Cl)C(=O)c3ccccc3C2=O)cc1 | 1.22 µM (active) | – | – | – | – | – | – | – | – | – | – | –
O=C(O)c1ccc2c3c(ncnc13)-c1ccccc1C2=O | 1.77 µM (active) | – | – | – | – | – | – | – | – | – | – | –
Cc1ccc2nccc(NC(=O)Nc3cccc(C(F)(F)F)n3)c2c1 | – | > 7.94 µM (inactive) | > 1.26 µM (inactive) | > 10 µM (inactive) | > 5.01 µM (inactive) | > 7.94 µM (inactive) | > 2 µM (inactive) | 0.316 µM (active) | > 3.16 µM (inactive) | 0.1 µM (active) | > 1 µM (inactive) | > 3.98 µM (inactive)
Cc1nn(C)c2sc3c(=O)[nH]cnc3c12 | – | > 79.4 µM (inactive) | 50.1 µM (active) | > 100 µM (inactive) | 50.1 µM (active) | > 79.4 µM (inactive) | > 79.4 µM (inactive) | 2.51 µM (active) | 100 µM (active) | 3.16 µM (active) | 25.1 µM (active) | > 39.8 µM (inactive)
Cc1c(/N=C2\C=CC(=O)c3ccccc32)c(=O)n(-c2ccccc2)n1C | 0.768 µM (active) | – | – | – | – | – | – | – | – | – | – | –
COc1cc2c(cc1F)C(c1ccccc1Cl)=Nc1c(n[nH]c1C)N2 [RG-1530] | – | 0.501 µM (active) | > 1.26 µM (inactive) | > 10 µM (inactive) | > 5.01 µM (inactive) | 6.31 µM (active) | 0.0126 µM (active) | > 7.94 µM (inactive) | 2 µM (active) | 1 µM (active) | > 0.794 µM (inactive) | 0.0126 µM (active)
